Measurements from ChEMBL document CHEMBL4808230, “Neuroprotective effects of 2-heptyl-3-hydroxy-4-quinolone in HT22 mouse hippocampal neuronal cells” (2021).
Calls of active or inactive are those of the source. The calls are words filed in the database; no cut-off is given here.

How the values were obtained:
HT-22 [1] = assay: Neuroprotective activity against glutamate-induced cytotoxicity in mouse HT-22 cells assessed as increase in cell viability at 0.6 uM in presence of glutamate by calcein-AM dye/propidium iodide staining based microscopic analysis; type: functional
HT-22 [2] = assay: Neuroprotective activity against glutamate-induced cytotoxicity in mouse HT-22 cells assessed as increase in cell viability at 1.85 to 5.5 uM in presence of glutamate by calcein-AM dye/propidium iodide staining based microscopic analysis; type: functional; settings: dose 1.85-5.5 µM
HT-22 [3] = assay: Inhibition of glutamate-induced oxidative stress in mouse HT-22 cells assessed as reduction in intracellular ROS accumulation at 0.2 to 1.8 uM in presence of glutamate by FACS analysis; type: functional, cell-based; settings: dose 0.2-1.8 µM
HT-22 [4] = assay: Inhibition of glutamate-induced oxidative stress in mouse HT-22 cells assessed as reduction in intracellular ROS accumulation at 0.2 to 3.6 uM in presence of glutamate by DCF-DA staining based fluorescence microscopic analysis; type: functional, cell-based; settings: dose 0.2-3.6 µM
HT-22 [5] = assay: Inhibition of glutamate-induced Ca2+ influx in mouse HT-22 cells assessed as reduction in intracellular Ca2+ concentration in presence of glutamate by Fluo3-AM staining based fluorescence microscopic method; type: functional, cell-based; settings: dose 0.6-1.8 µM
[6] = target: c-Jun N-terminal kinase (Mus musculus) (UniProt Q91Y86+Q9WTU6+Q61831); assay: Inhibition of glutamate-induced JNK activation in mouse HT-22 cells assessed as reduction in phosphorylated JNK protein level at 1 to 10 uM in presence of glutamate by Western blot analysis; type: cell-based; settings: dose 1-10 µM
Chain of c-Jun N-terminal kinase (Mus musculus) (Q61831 whole entry, looked up): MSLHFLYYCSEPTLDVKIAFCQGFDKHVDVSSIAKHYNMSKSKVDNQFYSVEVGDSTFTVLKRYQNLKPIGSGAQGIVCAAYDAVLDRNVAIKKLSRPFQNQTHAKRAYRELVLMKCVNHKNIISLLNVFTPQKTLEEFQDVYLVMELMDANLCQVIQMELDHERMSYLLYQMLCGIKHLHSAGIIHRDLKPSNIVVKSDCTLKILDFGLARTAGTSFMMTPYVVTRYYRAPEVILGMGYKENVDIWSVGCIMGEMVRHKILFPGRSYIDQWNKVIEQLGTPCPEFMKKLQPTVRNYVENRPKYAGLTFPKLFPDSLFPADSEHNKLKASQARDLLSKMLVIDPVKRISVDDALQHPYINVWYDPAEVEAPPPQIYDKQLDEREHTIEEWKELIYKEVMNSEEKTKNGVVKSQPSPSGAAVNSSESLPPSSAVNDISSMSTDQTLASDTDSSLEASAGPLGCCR
Chain of c-Jun N-terminal kinase (Mus musculus) (Q91Y86 whole entry, looked up): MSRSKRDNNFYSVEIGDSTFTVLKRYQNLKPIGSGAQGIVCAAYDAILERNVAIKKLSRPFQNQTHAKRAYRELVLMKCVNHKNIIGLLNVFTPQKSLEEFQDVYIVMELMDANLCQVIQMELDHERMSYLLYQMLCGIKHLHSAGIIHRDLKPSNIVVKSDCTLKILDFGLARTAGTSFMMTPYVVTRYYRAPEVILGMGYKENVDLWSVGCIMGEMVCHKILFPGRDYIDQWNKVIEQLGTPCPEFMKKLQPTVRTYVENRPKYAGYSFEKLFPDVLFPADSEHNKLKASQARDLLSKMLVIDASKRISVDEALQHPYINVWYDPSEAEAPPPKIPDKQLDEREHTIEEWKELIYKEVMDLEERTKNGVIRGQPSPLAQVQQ
Chain of c-Jun N-terminal kinase (Mus musculus) (Q9WTU6 whole entry, looked up): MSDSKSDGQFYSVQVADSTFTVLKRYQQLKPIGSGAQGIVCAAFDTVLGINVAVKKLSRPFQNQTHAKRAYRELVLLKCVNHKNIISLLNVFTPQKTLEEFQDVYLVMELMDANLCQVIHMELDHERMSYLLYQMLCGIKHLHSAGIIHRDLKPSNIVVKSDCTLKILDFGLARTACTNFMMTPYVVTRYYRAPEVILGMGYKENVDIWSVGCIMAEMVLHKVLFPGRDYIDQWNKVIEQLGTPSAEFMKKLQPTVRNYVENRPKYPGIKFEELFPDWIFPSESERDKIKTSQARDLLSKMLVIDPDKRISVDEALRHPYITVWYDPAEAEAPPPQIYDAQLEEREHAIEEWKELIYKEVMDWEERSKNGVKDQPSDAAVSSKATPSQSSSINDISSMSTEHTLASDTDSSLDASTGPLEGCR

HT-22 [7] = assay: Inhibition of glutamate-induced ERK activation in mouse HT-22 cells assessed as reduction in phosphorylated ERK protein level at 1 to 10 uM in presence of glutamate by Western blot analysis; type: cell-based; settings: dose 1-10 µM
[8] = target: MAP kinase p38 (Mus musculus) (UniProt P47811+O08911+Q9WUI1+Q9Z1B7); assay: Inhibition of glutamate-induced p38 MAPK activation in mouse HT-22 cells assessed as reduction in phosphorylated p38 MAPK protein level at 1 to 10 uM in presence of glutamate by Western blot analysis; type: cell-based; settings: dose 1-10 µM
HT-22 [9] = assay: Inhibition of glutamate-induced apoptosis in mouse HT-22 cells assessed as reduction in Bax protein level at 1 to 10 uM incubated for 10 hrs in presence of glutamate by Western blot analysis; type: functional, cell-based; settings: dose 1-10 µM
HT-22 [10] = assay: Inhibition of glutamate-induced apoptosis in mouse HT-22 cells assessed as increase in Bcl2 protein level at 1 to 10 uM incubated for 10 hrs in presence of glutamate by Western blot analysis; type: functional, cell-based; settings: dose 1-10 µM
HT-22 [11] = assay: Inhibition of glutamate-induced AIF nuclear translocation in mouse HT-22 cells assessed as decrease in translocation of AIF from mitochondria to nucleus at 1 to 10 uM in presence of glutamate by Western blot analysis; type: functional, cell-based; settings: dose 1-10 µM
HT-22 [12] = assay: Inhibition of glutamate-induced apoptosis in mouse HT-22 cells assessed as early apoptotic cells at 0.2 uM pretreated with glutamate for 2 hrs followed by incubation with compound for 8 hrs by Annexin-V FITC and propidium iodide staining based flow cytometric analysis (reference value: 71.33%); type: functional; parameters: scale not given: the % may be the effect or the level left
HT-22 [13] = assay: Inhibition of glutamate-induced apoptosis in mouse HT-22 cells assessed as late apoptotic cells at 0.2 uM pretreated with glutamate for 2 hrs followed by incubation with compound for 8 hrs by Annexin-V FITC and propidium iodide staining based flow cytometric analysis (reference value: 6.49%); type: functional; parameters: scale not given: the % may be the effect or the level left
HT-22 [14] = assay: Inhibition of glutamate-induced apoptosis in mouse HT-22 cells assessed as necrotic cells at 0.2 uM pretreated with glutamate for 2 hrs followed by incubation with compound for 8 hrs by Annexin-V FITC and propidium iodide staining based flow cytometric analysis (reference value: 0.79%); type: functional; parameters: scale not given: the % may be the effect or the level left
HT-22 [15] = assay: Inhibition of glutamate-induced apoptosis in mouse HT-22 cells assessed as early apoptotic cells at 1.85 uM pretreated with glutamate for 2 hrs followed by incubation with compound for 8 hrs by Annexin-V FITC and propidium iodide staining based flow cytometric analysis (reference value: 71.33%); type: functional; parameters: scale not given: the % may be the effect or the level left
HT-22 [16] = assay: Inhibition of glutamate-induced apoptosis in mouse HT-22 cells assessed as late apoptotic cells at 1.85 uM pretreated with glutamate for 2 hrs followed by incubation with compound for 8 hrs by Annexin-V FITC and propidium iodide staining based flow cytometric analysis (reference value: 6.49%); type: functional; parameters: scale not given: the % may be the effect or the level left
HT-22 [17] = assay: Inhibition of glutamate-induced apoptosis in mouse HT-22 cells assessed as necrotic cells at 1.85 uM pretreated with glutamate for 2 hrs followed by incubation with compound for 8 hrs by Annexin-V FITC and propidium iodide staining based flow cytometric analysis (reference value: 0.79%); type: functional; parameters: scale not given: the % may be the effect or the level left
HT-22 [18] = assay: Inhibition of glutamate-induced apoptosis in mouse HT-22 cells assessed as viable cells at 1.85 uM pretreated with glutamate for 2 hrs followed by incubation with compound for 8 hrs by Annexin-V FITC and propidium iodide staining based flow cytometric analysis (reference value: 21.39%); type: functional; settings: read-out: Activity
HT-22 [19] = assay: Inhibition of glutamate-induced apoptosis in mouse HT-22 cells assessed as viable cells at 0.2 uM pretreated with glutamate for 2 hrs followed by incubation with compound for 8 hrs by Annexin-V FITC and propidium iodide staining based flow cytometric analysis (reference value: 21.39%); type: functional; settings: read-out: Activity
HT-22 [20] = assay: Neuroprotective activity against glutamate-induced cytotoxicity in mouse HT-22 cells assessed as reduction in cell death and morphological changes at 0.6 to 1.8 uM incubated for 12 hrs in presence of glutamate by phase contrast microscopic analysis; type: functional, cell-based; settings: dose 0.6-1.8 µM
HT-22 [21] = assay: Neuroprotective activity against glutamate-induced cytotoxicity in mouse HT-22 cells assessed as reduction in cell death pretreated with glutamate followed by incubation with compound for 6 hrs and measured at 16 hrs post-glutamate treatment; type: functional, cell-based
HT-22 [22] = assay: Neuroprotective activity against glutamate-induced cytotoxicity in mouse HT-22 cells assessed as reduction in cell death pretreated with glutamate followed by incubation with compound for 8 hrs and measured at 16 hrs post-glutamate treatment; type: functional, cell-based
RGC-5 = assay: Cytoprotective activity against glutamate-induced cytotoxicity in rat RGC-5 cells assessed as reduction in cell death; type: functional, cell-based
[23] = Antioxidant activity assessed as DPPH radical scavenging activity; type: functional
[24] = Inhibition of glutamate-induced Ca2+ influx in mouse HT-22 cells assessed as reduction in intracellular Ca2+ concentration at 0.6 to 1.8 uM in presence of glutamate by Fluo3-AM staining based fluorescence microscopic method relative to control; type: functional; settings: dose 0.6-1.8 µM
HT-22 [25] = assay: Inhibition of glutamate-induced AIF nuclear translocation in mouse HT-22 cells assessed as decrease in translocation of AIF from mitochondria to nucleus in presence of glutamate by immunostaining analysis; type: functional, cell-based

Compound: CCCCCCCc1[nH]c2ccccc2c(=O)c1O
- Activity (HT-22 [1]): Active
- Activity (HT-22 [2]): inactive
- inhibition (HT-22 [3]): Active
- inhibition (HT-22 [4]): Active
- inhibition (HT-22 [5]): Dose-Dependent Effect
- inhibition [6]: Active
- inhibition (HT-22 [7]): Active
- inhibition [8]: Active
- inhibition (HT-22 [9]): Active
- inhibition (HT-22 [10]): Active
- inhibition (HT-22 [11]): Active
- Activity (HT-22 [12]): 55.26%
- Activity (HT-22 [13]): 5.51%
- Activity (HT-22 [14]): 1.74%
- Activity (HT-22 [15]): 0.44%
- Activity (HT-22 [16]): 1.06%
- Activity (HT-22 [17]): 0.44%
- viability at 1.85 µM (HT-22 [18]): 98.1%
- viability at 0.2 µM (HT-22 [19]): 37.5%
- Activity (HT-22 [20]): Active
- Activity (HT-22 [21]): Active
- Activity (HT-22 [22]): inactive
- Activity (RGC-5): Active
- Activity [23]: Dose-Dependent Effect
- fold change (FC) [24]: 0.98
- inhibition (HT-22 [25]): Active
